Test results from patent US12617762B2, “Carboxy derivatives with antiinflamatory properties” (Sitryx Therapeutics Limited, priority 2019, dated 2026).
Where a name gives a salt, the structure may show the parent alone. Read-outs that look alike come from different tables or passages of the source.

Experiments:
Type in all cases: cell-based
[1] = tested on: IL-1β cytokine output from THP-1s; assay: THP-1 AlphaLISA IL-1β cytokine inhibition assay; details: for IC50: Homo sapiens; for IL-1β lowering, result in words: THP-1 IL-1β assay
Outline: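 IL-1β release by AlphaLISA, expressed as % inhibition against +/− LPS controls on each plate. Differentiation: PMA, 72 h. Sequence: 30 min compound pre-treatment, LPS 24 h, Nigericin 1 h before supernatant harvest, all at 37° C./5% CO2.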

[2] = tested on: NRF2 (nuclear factor erythroid 2-related factor 2); assay: NRF2 +/-GSH activation assay (DiscoverX PathHunter NRF2 translocation kit, U2OS cells)
Outline: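 Activation is expressed as percent of plate DMF (high) versus no-DMF (low) controls, from luminescence after 6 h compound exposure at 37 °C of U2OS PathHunter cells. The +GSH condition used compound pre-incubated 30 min in 6 mM working GSH; −GSH cells received compound directly.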

[3] = tested on: IL-6 cytokine output from THP-1s; assay: THP-1 AlphaLISA IL-6 cytokine inhibition assay; details: Homo sapiens, LPS then nigericin
Method: The cytokine inhibition profiles of compounds of formula (I) were determined in a differentiated THP-1 cell assay. All assays were performed in RPMI-1640 growth medium (Gibco), supplemented with 10% fetal bovine serum (FBS; Gibco), 1% penicillin-streptomycin and 1% sodium pyruvate unless specified otherwise. The IL-1β cytokine inhibition assay was run in a background of differentiated THP-1 cells as described below. All reagents described were from Sigma-Aldrich unless specified otherwise. Compounds were prepared as 10 mM DMSO stocks.
THP-1 cells were expanded as a suspension up to 80% confluence in appropriate growth medium. Cells were harvested, suspended, and treated with an appropriate concentration of phorbol 12-myristate 13-acetate (PMA) over a 72 hr period (37° C./5% CO2).
Following 72 hrs of THP-1 cell incubation, cellular medium was removed and replaced with fresh growth media containing 1% of FBS. Working concentrations of compounds were prepared separately in 10% FBS treated growth medium and pre-incubated with the cells for 30 minutes (37° C./5% CO2). Following the 30 minute compound pre-incubation, THP-1s were treated with an appropriate concentration of LPS and the cells were subsequently incubated for a 24 hr period (37° C./5% CO2). An appropriate final concentration of Nigericin was then dispensed into the THP-1 plates and incubated for 1 hour (37° C./5% CO2) before THP-1 supernatants were harvested and collected in separate polypropylene 96-well holding plates.
Reagents from an IL-1β and IL-6 commercial kit (Perkin Elmer) were prepared and run according to the manufacturer's instructions. Subsequently, fluorescence signal detection in a microplate reader was measured (EnVision® Multilabel Reader, Perkin Elmer).
Percentage inhibition was calculated per cytokine by normalising the sample data to the high and low controls used within each plate (+/− LPS respectively).

[4] = THP-1, differentiated THP-1 cells, LPS then nigericin
[5] = +GSH, 30 minute compound-GSH pre-incubation, read-out: NRF2 activation +GSH EC50
[6] = +GSH, normalised to DMF high control
[7] = −GSH, U2OS PathHunter cells, 6 hours compound treatment, read-out: NRF2 activation −GSH EC50
[8] = −GSH, normalised to DMF high control
[9] = THP-1, differentiated THP-1 cells

SMILES | IC50 [1, 4] | IL-1β lowering, result in words [1] | EC50 [2, 5] | NRF2 activation +GSH Emax [2, 6] | EC50 [2, 7] | NRF2 activation −GSH Emax [2, 8] | IC50 [3, 9] | IC50 ([3]; differentiated THP-1 cells) | IC50 ([1]; THP-1, Table 3, head to head comparison of exo vs endo double bond compounds) | EC50 ([2]; −GSH, Table 5 exo vs endo comparison, read-out: −GSH EC50) | −GSH Emax ([2]; −GSH, normalised to DMF high control, Table 5 exo vs endo comparison)
C=C(Cc1nc(CC2CCCCC2)no1)C(=O)O [Example 32, 2-((3-(cyclohexylmethyl)-1,2,4-oxadiazol-5-yl)methyl)acrylic acid] | > 100 µM | not effective | > 100 µM | 35% | 50.1 µM | 46% | > 100 µM | – | – | – | –
C=C(Cc1nc(CCc2ccc(CC)cc2)no1)C(=O)O [Example 41, 2-((3-(4-ethylphenethyl)-1,2,4-oxadiazol-5-yl)methyl)acrylic acid] | 45.4 µM | – | 39.7 µM | 103% | 31.7 µM | 135% | 22.5 µM | – | – | – | –
C=C(C(=O)O)C1(c2nc(C3(c4ccc(C(F)(F)F)cc4)CC3)no2)CC1 [Example 156, 2-(1-(3-(1-(4-(trifluoromethyl)phenyl)cyclopropyl)-1,2,4-oxadiazol-5-yl)cyclopropyl)acrylic acid] | 5.3 µM | – | – | −16.4% | > 100 µM | 0% | – | 55.9 µM | – | – | –
C=C(Cc1ncc(CCCCCCCC)s1)C(=O)O [Example 55, 2-((5-octylthiazol-2-yl)methyl)acrylic acid] | 14.9 µM | – | 17.8 µM | 163% | 13.3 µM | 276% | 4.2 µM | – | – | – | –
C=C(Cc1nc(C2(c3ccc(C)c(Cl)c3)CC2)no1)C(=O)O [Example 141, 2-((3-(1-(3-chloro-4-methylphenyl)cyclopropyl)-1,2,4-oxadiazol-5-yl)methyl)acrylic acid] | > 56.2 µM | – | 20.1 µM | 100% | 16.7 µM | 177% | – | 32.4 µM | – | – | –
C=C(Cc1ncc(CCCCCCCC)cn1)C(=O)O [Example 106] | 67.8 µM | – | 24.6 µM | 101% | 18.6 µM | 143% | – | 39.3 µM | – | – | –
C=C(Cc1nc(-c2cc(F)c(OCCCC)c(F)c2)no1)C(=O)O [Example 162, 2-((3-(4-butoxy-3,5-difluorophenyl)-1,2,4-oxadiazol-5-yl)methyl)acrylic acid] | > 46.4 µM | – | 1.3 µM | 269% | 1.1 µM | 232% | – | 6.4 µM | – | – | –
C=C(Cc1nc(-c2ccc(C(F)(F)CC)cc2)no1)C(=O)O [Example 71, 2-((3-(4-(1,1-difluoropropyl)phenyl)-1,2,4-oxadiazol-5-yl)methyl)acrylic acid] | 54.9 µM | – | 37.1 µM | 146% | 28.8 µM | 178% | 8.3 µM | – | – | – | –
C=C(Cc1cccc(Cc2ccc(Cl)cc2)n1)C(=O)O [Example 171, 2-((6-(4-chlorobenzyl)pyridin-2-yl)methyl)acrylic acid trifluoroacetic acid salt] | > 100 µM | – | > 100 µM | 0% | > 100 µM | 5% | > 100 µM | – | – | – | –
C=C(C(=O)O)C(C)(C)c1nc(C2(c3ccc(C(F)(F)F)cc3)CC2)no1 [Example 172] | 5.1 µM | – | > 100 µM | 7.6% | > 100 µM | 0% | – | 67.5 µM | – | – | –
C=C(C(=O)O)C(C)c1nc(C2(c3ccc(C(F)(F)F)cc3)CC2)no1 (stereo not drawn) [Example 174, 2-methylene-3-(3-(1-(4-(trifluoromethyl)phenyl)cyclopropyl)-1,2,4-oxadiazol-5-yl)butanoic acid] | 4.2 µM | – | > 100 µM | 1.8% | > 100 µM | 24% | – | > 100 µM | – | – | –
C=C(Cc1nc(CCCCCCCC(F)F)no1)C(=O)O [Example 58, 2-((3-(8,8-difluorooctyl)-1,2,4-oxadiazol-5-yl)methyl)acrylic acid] | 36.9 µM | – | 30.6 µM | 105% | 26.4 µM | 149% | 16 µM | – | – | – | –
C/C(=C\c1nc(C2(c3ccc(S(F)(F)(F)(F)F)cc3)CC2)no1)C(=O)O [Example 169] | > 31.6 µM | – | > 100 µM | 15.4% | > 100 µM | 43% | – | 20.2 µM | > 31.6 µM | > 100 µM | 43%
C=C(Cc1nc(CCC#CCCCC)no1)C(=O)O [Example 57, 2-((3-(oct-3-yn-1-yl)-1,2,4-oxadiazol-5-yl)methyl)acrylic acid] | > 100 µM | not effective | 49.9 µM | 56% | 41.1 µM | 102% | 24.1 µM | – | – | – | –
C=C(Cc1cccc(C2(c3ccc(Cl)cc3)CC2)n1)C(=O)O [Example 175, 2-((6-(1-(4-chlorophenyl)cyclopropyl)pyridin-2-yl)methyl)acrylic acid] | 62.2 µM | – | > 100 µM | 4.0% | > 54.8 µM | 43% | – | 40.6 µM | – | – | –
C=C(Cc1nc(C2(c3cc(Cl)c(Br)c(Cl)c3)CC2)no1)C(=O)O [Example 176, 2-((3-(1-(4-bromo-3,5-dichlorophenyl)cyclopropyl)-1,2,4-oxadiazol-5-yl)methyl)acrylic acid] | 3.2 µM | – | – | – | 5.4 µM | 222% | – | 7.6 µM | – | – | –
C=C(Cc1nc(CCCCCC(F)(F)CC(F)(F)F)no1)C(=O)O [Example 87, 2-((3-(6,6,8,8,8-pentafluorooctyl)-1,2,4-oxadiazol-5-yl)methyl)acrylic acid] | > 100 µM | not effective | 48.6 µM | 70% | 41.4 µM | 95% | 31.7 µM | – | – | – | –
C=C(Cc1nc(C(C)(C)CCCCCC)no1)C(=O)O [Example 26, 2-((3-(2-methyloctan-2-yl)-1,2,4-oxadiazol-5-yl)methyl)acrylic acid] | 36.3 µM | – | 35.6 µM | 137% | 27.3 µM | 205% | 22.6 µM | – | – | – | –
